# PubChem BioAssay (NCI)
# Several values for one entry are separate records, joined by “and”; a condition that tells them apart may be missing. Equal entries are not always repeated.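 Cultured in 96-well plates, cells were exposed to test compound for 48 hours across five concentrations. Here, GI50 denotes the concentration required for 50% inhibition of growth. At the TGI there is no net growth.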
# Assays:
# Test in all cases: inhibition of tumour cell growth, NCI panel, 48 h
# [1] = tested on: HCT-15 colon
# [2] = tested on: LOX IMVI melanoma
# [3] = tested on: OVCAR-5 ovarian
# [4] = tested on: PC-3 prostate
# [5] = tested on: RPMI-8226 leukemia
# [6] = tested on: SK-MEL-28 melanoma
# [7] = tested on: SK-MEL-5 melanoma
# [8] = tested on: SN12C renal
# [9] = tested on: TK-10 renal
# [10] = tested on: U251 CNS
Structure (SMILES),GI50 [1],TGI [1],GI50 [2],TGI [2],GI50 [3],TGI [3],GI50 [4] [µM],TGI [4],GI50 [5],TGI [5],GI50 [6],TGI [6],GI50 [7],TGI [7],GI50 [8],TGI [8],GI50 [9],TGI [9],GI50 [10],TGI [10]
O=C(O)CC(S)C(=O)O.[Li+].[Sb] (stereo not drawn),> 100 µM,> 100 µM,47.1 µM,> 100 µM,> 100 µM,> 100 µM,> 100,> 100 µM,63.3 µM,> 100 µM,55.5 µM,> 100 µM,13.7 µM,29 µM,> 100 µM,> 100 µM,> 100 µM,> 100 µM,39.9 µM,> 100 µM
COc1ccc2[nH]cc(Cc3c[nH]c4ccc(OC)cc34)c2c1,14.1 µM,27.2 µM,14.9 µM,28.1 µM,24.8 µM,58 µM,19.3,39.4 µM,20.8 µM,40.3 µM,21.8 µM,53 µM,16.5 µM,30.1 µM,17.5 µM,31.3 µM,15.9 µM,44 µM,15.9 µM,29.4 µM
O=[N+]([O-])c1cc(C(F)(F)F)cc2n[se]nc12,–,5.59 µM,–,14.4 µM,–,26.4 µM,–,8.32 µM,–,2.89 µM,–,4.39 µM,–,8.02 µM,–,10.6 µM,–,8.47 µM,–,29.5 µM
CN(CCCCCCCCNc1ccnc2ccccc12)Cc1ccc(-c2ccc(-c3ccc(C#N)cc3)s2)cc1,0.266 µM,1.37 µM,0.164 µM,0.31 µM,1.39 µM,2.73 µM,0.766,2.3 µM,0.164 µM,0.571 µM,1.65 µM,3.06 µM,0.89 µM,2.17 µM,1.37 µM,3 µM,1.57 µM,3.18 µM,0.248 µM,0.842 µM
CCOP(=O)(OCC)C(NC(c1ccccc1)c1ccccc1)c1ccsc1 (stereo not drawn),16.1 µM,84.6 µM,–,–,16.9 µM,32.6 µM,10.9,23.9 µM,7.76 µM,22 µM,–,–,18.4 µM,35.1 µM,16.7 µM,30.3 µM,16.1 µM,32.2 µM,–,–
O=C(CS(=O)c1nc2ccccc2nc1-c1ccccc1)Nc1ccc(Cl)cc1 (stereo not drawn),21.2 µM,59.4 µM,17.5 µM,33.6 µM,33.7 µM,> 100 µM,26.1,> 100 µM,20.6 µM,58.8 µM,58.9 µM,> 100 µM,15.2 µM,30.8 µM,18.2 µM,33.7 µM,27.8 µM,82.7 µM,21.8 µM,61.6 µM
COc1ccccc1-c1ccc2c(N)c(C(=O)c3ccc4c(c3)OCO4)sc2n1,4.08 µM,53.6 µM,4.61 µM,21.6 µM,11.2 µM,29.5 µM,10.6,40.3 µM,6.05 µM,59.4 µM,5.03 µM,19.9 µM,4.52 µM,24.2 µM,6.14 µM,24.5 µM,12.8 µM,28.6 µM,–,–
Cc1cnc(-c2ccc(-c3ccc(NC(=O)Nc4cccc(C(F)(F)F)c4)cc3F)c3c2C(=O)NC3)[nH]1,6.19 µM,33.6 µM,0.357 µM,17.7 µM,28.4 µM,> 59.8 µM,15.7,> 50.6 µM,10.7 µM,52.3 µM,11.5 µM,37.7 µM,23.6 µM,> 65.6 µM,0.304 µM,35.3 µM,15.5 µM,> 58.5 µM,11.3 µM,32 µM
CCN(CC)CCOc1ccc(NC(=O)C(C(C)C)N2C(=O)/C(=C/c3ccc(Br)cc3)SC2=S)cc1 (stereo not drawn),2.01 µM,4.31 µM,1.75 µM,3.23 µM,2.89 µM,10.4 µM,3.17,12.1 µM,2.35 µM,5.73 µM,2.07 µM,4.35 µM,3.71 µM,12.8 µM,1.71 µM,3.29 µM,2.17 µM,5.09 µM,1.94 µM,4.08 µM
COc1ccc2c(c1)C(=O)/C(=C/c1cccc(OCC(=O)c3ccc([N+](=O)[O-])cc3)c1)CO2,2.17 µM,6.92 µM,1.47 µM,2.88 µM,2.34 µM,5.08 µM,2.13,7.95 µM,1.13 µM,–,1.86 µM,3.7 µM,2.79 µM,8.05 µM,2.92 µM,11.4 µM,2.97 µM,7.49 µM,1.6 µM,3.16 µM
N#Cc1ccc(O)c(C2=NCC(c3ccc(-c4ccccc4)cc3)O2)c1 (stereo not drawn),0.0896 µM,20.4 µM,0.0579 µM,10.8 µM,0.941 µM,28.9 µM,0.471,22.8 µM,0.416 µM,> 100 µM,1.34 µM,43.8 µM,0.532 µM,2.28 µM,0.606 µM,16.9 µM,–,–,0.326 µM,11.6 µM
Oc1ccccc1/C=N\Nc1ccccc1,4.16 µM,26.4 µM,0.725 µM,12.5 µM,8.75 µM,39.2 µM,9.32,> 100 µM,3.99 µM,56.8 µM,5.33 µM,> 100 µM,3.59 µM,19.8 µM,3.41 µM,> 100 µM,24.9 µM,> 100 µM,10.2 µM,65.6 µM
N#Cc1ccc(C(=O)c2cnn(-c3ccc(F)cc3)c2N)cc1,> 25 µM,> 25 µM,> 25 µM,> 25 µM,> 25 µM,> 25 µM,> 25,> 25 µM,> 25 µM,> 25 µM,> 25 µM,> 25 µM,> 25 µM,> 25 µM,> 25 µM,> 25 µM,> 25 µM,> 25 µM,> 23.1 µM,> 25 µM
CC(=O)OCC1OC([S-])C(OC(C)=O)C(OC(C)=O)C1OC(C)=O.[Au+].c1ccc(CN2[CH-]N(Cc3ccccc3)C(c3ccccc3)=C2c2ccccc2)cc1,1.8 µM and 0.906 µM,3.68 µM and 2 µM,1.65 µM and 0.563 µM,3.1 µM and 1.32 µM,3.35 µM and 0.783 µM,11.9 µM and 3.1 µM,–,4.73 µM and 1.17 µM,–,5.99 µM and 1.93 µM,2.33 µM and 0.468 µM,5.76 µM and 2.29 µM,4.95 µM and 0.839 µM,–,–,5.08 µM and 1.18 µM,2.66 µM and 0.796 µM,8.34 µM and 3.8 µM,1.74 µM and 0.251 µM,3.2 µM and 0.942 µM
O=C1/C=C/[C@@H](O)[C@@H]2C[C@@H](O)C[C@H]2/C=C/CCC[C@H](CCc2ccc(NC(=S)Nc3ccc4c(c3)C(=O)OC43c4ccc(O)cc4Oc4cc(O)ccc43)cc2)O1,0.889 µM,> 100 µM,0.244 µM,–,0.698 µM,> 100 µM,0.516,> 100 µM,0.339 µM,2.39 µM,0.263 µM,0.815 µM,0.164 µM,0.311 µM,2.17 µM,> 100 µM,0.608 µM,12.6 µM,0.47 µM,> 100 µM
COc1ccc(-c2nsc3c2NC(=O)CC3c2cccc(F)c2)cc1 (stereo not drawn),2.41 µM,> 100 µM,6.5 µM,> 100 µM,7.86 µM,> 100 µM,4.93,> 100 µM,4.18 µM,> 100 µM,7.37 µM,> 100 µM,2.81 µM,> 100 µM,5.2 µM,> 100 µM,5.26 µM,> 100 µM,5.55 µM,> 100 µM
Cc1cc2oc(=O)cc(OC/C=C3/CCC(=O)O3)c2cc1C,2.69 µM,12.2 µM,1.82 µM,4.59 µM,8.7 µM,22.9 µM,1.74,11.4 µM,0.512 µM,4.01 µM,10.6 µM,24 µM,12.4 µM,26.3 µM,5.2 µM,22.5 µM,2 µM,8.34 µM,3.42 µM,15.1 µM
C=C1C(=O)O[C@H]2C3OC3(C)CC/C=C(/C(=O)OC)[C@@H](OC(C)=O)[C@H](OC(=O)C3(C)OC3C)[C@H]12 (stereo partly drawn),899 nM and 3.85 µM and 0.482 µg/mL,2.78 µM and 32.2 µM and 2.13 µg/mL,1.36 µM and 1.24 µM,2.74 µM and 2.7 µM,2.6 µg/mL,8.82 µM and 4.66 µg/mL,2.99,5.16 µM and 11.7 µM,0.329 µg/mL,1.21 µM and 2.66 µM and 0.941 µg/mL,1.06 µM and 1.74 µM and 0.336 µg/mL,3.55 µM and 9.53 µM and 0.779 µg/mL,1.88 µM and 1.91 µM and 2.6 µg/mL,3.87 µM and 7.72 µM and 9.58 µg/mL,1.5 µM and 2.97 µM and 2.45 µg/mL,4.68 µM and 10.4 µM and 6.03 µg/mL,1.63 µM and 3.42 µM and 0.719 µg/mL,3.24 µM and 9.88 µM and 2.43 µg/mL,3.73 µM and 5.25 µg/mL,12.7 µM and 14.9 µg/mL
CC[C@H](C)C(=O)O[C@H]1CCC=C2C=C[C@H](C)[C@H](CC[C@@H]3C[C@@H](O)CC(=O)O3)[C@H]21,2.52 µM,> 100 µM,1.07 µM,6.53 µM,14.4 µM,> 100 µM,1.7,> 100 µM,13.1 µM,> 75.9 µM,15.3 µM,> 100 µM,3.39 µM,13.6 µM,3.88 µM,> 100 µM,22.5 µM,> 100 µM,1.13 µM,> 100 µM
CN(C)c1ccc2cc3c(cc2c1)Oc1ccccc1N3.[Cl][Zn][Cl],2.24 µM,6.47 µM,1.6 µM,3.22 µM,1.96 µM,6.35 µM,3.54,14.1 µM,3.98 µM,31 µM,2.5 µM,7.04 µM,3.16 µM,11.9 µM,11.6 µM,63.9 µM,6.2 µM,16.5 µM,–,–
COc1ccc2[nH]cc(C3(c4c[nH]c5ccc(OC)cc45)C(=O)Nc4ccc(Cl)cc43)c2c1,7.09 µM,> 100 µM,2.16 µM,5.33 µM,4.08 µM,43.1 µM,3.96,38.4 µM,6.51 µM,> 100 µM,3.1 µM,13.1 µM,2.56 µM,7.57 µM,4.34 µM,18.6 µM,–,–,2.88 µM,13.4 µM
COc1ccc(C(=O)/C=C/c2c(C(F)(F)F)nc3ccccn23)cc1OC,1.57 µM,> 100 µM,0.584 µM,–,–,–,2.73,> 100 µM,0.362 µM,1.67 µM,7.1 µM,> 100 µM,2.1 µM,20.1 µM,3.53 µM,> 100 µM,2.07 µM,> 20.6 µM,1.1 µM,> 100 µM
CC1OC(OC2C(O)C(OCCc3ccc(O)c(O)c3)OC(CO)C2OC(=O)/C=C/c2ccc(O)c(O)c2)C(O)C(O)C1O (stereo not drawn),> 100 µM,> 100 µM,18.2 µM,36 µM,19.6 µM,39 µM,> 100,> 100 µM,42.4 µM,> 100 µM,52.7 µM,> 100 µM,> 100 µM,> 100 µM,20.5 µM,36.8 µM,> 100 µM,> 100 µM,–,–
CCN(CC)CCNc1ccc(N=Nc2cnc3ccccc3c2)c2ccccc12,1.47 µM,2.93 µM,1.43 µM,2.77 µM,1.64 µM,3.24 µM,1.28,2.6 µM,–,–,1.79 µM,3.29 µM,1.67 µM,3.03 µM,1.64 µM,3.16 µM,2.1 µM,3.87 µM,1.7 µM,3.2 µM
